Experiments:
[1] = tested on: CA3-CA1 connections in hippocampal slices; test: Electrophysiology in Wt hippocampal slices (fEPSP, PPF, LTP, LTD); format: cell-based, mice; details: hippocampal slices; 6-BIO 10 nM
Protocol: Slice Preparation and Electrophysiology. […] Slices were transferred to an experimental chamber (2 ml), superfused (3 ml/min, at 20-22° C.) with gassed ACSF and visualized by trans-illumination with a binocular microscope (MSZ-10, Nikon, Melville, N.Y.). To evoke field excitatory postsynaptic potentials (fEPSPs), we stimulate with bipolar concentric electrodes (Platinum/Iridium, 125 μm OD diameter, FHC Inc., Bowdoin, Me.) generated by a stimulator (Axon 700b, Molecular Devices, Sunnyvale, Calif.) and connected to an isolation unit (Isoflex, AMPI, Jerusalem, Israel) . The stimulation was in the Stratum Radiatum within 100-200 μm from the recording site. The paired pulse facilitation index was calculated by ((R2−R1)/R1), where R1 and R2 were the peak amplitudes of the first and second fEPSP respectively. To generate LTP we used Theta Burst Stimulation (TBS) consisting of 5 trains of stimulus with an inter-train interval of 20 s. Each train consisted of 10 bursts at 5 Hz and each burst having 4 pulses at 100 Hz. To generate LTD we used Low Frequency Stimulation (LFS) consisting in 900 paired pulses at 1 Hz. Recordings were filtered at 2.0-3.0 kHz, sampled at 4.0 kHz using an A/D converter, and stored with pClamp 10 (Molecular Devices). Evoked postsynaptic responses were analyzed off-line, using an analysis software (pClampfit, Molecular Devices), which allowed visual detection of events, computing only those events that exceeded and arbitrary threshold.

HEK293T cells = test: TOP/FOP flash luciferase reporter assay; format: cell-based
Protocol: Luciferase Assay. 150,000 HEK293T cells were seeded in triplicate per condition and kept for 24 hours at 37° C. with 5% CO2. The cultures were transfected with TOPflash or FOPflash (400 ng), which are firefly-luciferase reporter DNA constructs (Milipore), using LipofectAMINE 2000 (Invitrogen). To control for transfection pRL-TK (10 ng) was included in all transfections. […] Values were normalized by the renilla value from the same well. To statistically compare treatments ANOVA was used.

[2] = tested on: Wnt/β-catenin pathway in hippocampal slices; test: β-catenin, GSK-3β and Dvl-3 western blot in hippocampal slices of wild-type mice; format: cell-based; details: for time at which total levels of β-catenin increased: 5 μM ANDRO, Wnt3a conditioned medium or 10 nM 6-BIO, up to 1 h
Protocol: Slice preparation. […] Transverse slices (250-300 μm) from the dorsal hippocampus were cut under oxygen-saturated cold artificial cerebrospinal fluid using a Vibroslice microtome (VSL, World Precision Instruments, Inc WPI, Sarasota, Fla.). After obtained, slices were incubated in ACSF for at least than one hour at room temperature, in order to stabilize activity.
Immunoblotting. […] Briefly, tissues were homogenized in RIPA buffer (10 mM Tris-Cl, pH 7.4, EDTA 5 mM, 1% NP-40, 1% sodium deoxycholate, and 1% SDS) supplemented with a protease inhibitor mixture (1 mM PMSF, 2 μg/mL aprotinin, 1 μg/mL pepstatin and 10 μg/mL benzamidine) and phosphatase inhibitors (25 mMNaF, 100 mM Na3VO4, 1 mM EDTA and 30 μM Na4P207) using a Potter homogenizator and then passed sequentially through different caliber syringes. […] Protein concentration was determined using the BCA Protein Assay Kit (Pierce). […] The reactions were followed by incubation with anti-mouse, anti-goat or anti-rabbit IgG peroxidase conjugated (Pierce, Rockford, Ill.) and developed using an ECL kit (Western Lightning Plus ECL, PerkinElmer).

Wnt target genes = test: PCR array of Wnt target genes in hippocampal neurons; format: cell-based, rat
Protocol: Primary culture of rat hippocampal neurons. […] PCR-ARRAY. RNA from hippocampal neurons was extracted using Trizol. Quantification and purity of RNA preparations were checked by absorbance using Nanodrop ND-2000. Only preparations with a 260/280 nm ratio≥1.8, a 260/230 nm ratio ≥1,7 and no sign of RNA degradations, verified by agarose gel electrophoresis with Gel Red TM were used. Genomic DNA was degraded. Using RT2First-Strand cDNA Synthesis kit (SuperArray), 1 μg total RNA was reverse transcribed and then real-time PCR was performed by adding cDNA directly to PCR Master Mix, containing SYBR Green and ROX. The mixtures were then aliquoted into a 96-well PCR array plates, which profiles the expression of 84 Wnt target genes from rat. The PCR was run on ABI StepOnePlus, with 1 cycle of 10 min at 95° C. followed by 40 cycles of 15 s at 95° C. and 1 min at 60° C.
Treatment of neuronal cultures. Primary hippocampal cultures of neurons 14 DIV were washed twice in neurobasal medium and maintained for 1 hour.

[3] = 9 h treatment, of the 86 genes analyzed

O=C1Nc2cc(Br)ccc2/C1=C1/Nc2ccccc2/C1=N\O [6-BIO, 6-bromoindirubin-3′-oxime, reference compound]
induction of LTD (fEPSP slope after LFS) [1]: complete inhibition of the induction of LTD
TOPflash reporter activity (HEK293T cells; ANDRO 10 μM or 6-BIO 10 nM, 24 h): significant increase
increase of luciferase reporter over control (HEK293T cells; TOPflash, HEK293T): ~6 fold
time at which total levels of β-catenin increased [2]: 15 min
rate of increase of GSK3β Ser-9 and decrease of Tyr-216 phosphorylation ([2]; compared to Wnt-3a treatment): faster
Cdh-1 gene expression (Wnt target genes): does not
number of Wnt target genes specifically modulated (Wnt target genes; [3]): 4 genes
number of changed Wnt target genes shared by ANDRO and 6-BIO (Wnt target genes; [3]): 4 genes

Wnt-3a
time at which total levels of β-catenin increased [2]: 45 min
inhibition of β-catenin accumulation by Wnt antagonists sFRP and Dkk-1 ([2]; antagonists 15 min before 5 μM ANDRO or Wnt3a conditioned medium for 1 h): able to inhibit the accumulation of β-catenin in the presence of Wnt3a
